# Source: patent US20230085307A1, “PYRIDAZINONE COMPOUND AND HERBICIDE” (NISSAN CHEMICAL CORPORATION, priority 2019, published 2023)
# Experiments:
# chickweed = experiment: Test Example 5: herbicidal effect by foliage application, plastic box (Table 20, symbol P); assay type: in vivo, common chickweed (Stellaria media); settings: foliage application, three weeks after application
# Method in brief: (§1)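 Sow seeds spot-wise in sterilized diluvial soil; cover with ~1.5 cm soil. Grow 14 days in greenhouse, 25° C. to 30° C. Spray foliage with emulsion diluted to predetermined amount. Rate effect after 3 weeks.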
# false cleavers = experiment: Test Example 4: herbicidal effect by soil treatment (Table 19, symbol Q); assay type: in vivo, false cleavers (Galium spurium)
# Method in brief: (§2)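 Soil-surface application: an emulsion agent diluted with water to the predetermined dose is sprayed uniformly over seeds lying under roughly 1.5 cm of sterilized diluvial soil. Boxes stay in a greenhouse at 25° C. to 30° C. Three weeks later, each species is graded on previously defined criteria.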
# blackgrass [1] = experiment: Test Example 5: herbicidal effect by foliage application, plastic box (Table 20, symbol J); assay type: in vivo, blackgrass (Alopecurus myosuroides); settings: foliage application, three weeks after application
# Method in brief: as §1
# velvetleaf = experiment: Test Example 4: herbicidal effect by soil treatment (Table 19, symbol M); assay type: in vivo, velvetleaf (Abutilon theophrasti)
# Method in brief: as §2
# late watergrass = experiment: Test Example 2: herbicidal activity, application during weed generation under submerged conditions (Table 17, symbol A); assay type: in vivo, late watergrass (Echinochloa oryzicola); settings: application during weed generation, submerged conditions
# Method in brief: (§3)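 Mixed weed seedlings in alluvial soil under a 4 cm water layer, greenhouse-grown at 25–30° C. Compound given as a diluted emulsion into the floodwater at the 1–2 leaf stage; response graded after three weeks.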
# persian speedwell = experiment: Test Example 4: herbicidal effect by soil treatment (Table 19, symbol R); assay type: in vivo, Persian speedwell (Veronica persica)
# Method in brief: as §2
# Japanese bulrush = experiment: Test Example 1: herbicidal activity, application before weed generation under submerged conditions (Table 16, symbol B); assay type: in vivo, Japanese bulrush (Schoenoplectus juncoides)
# Method in brief: (§4)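 Submerged Wagner pots (alluvial soil, 4 cm water) sown with weed seeds and planted with 2.5-leaf rice seedlings; emulsifiable concentrate diluted in water applied to water surface on sowing day. Held in greenhouse at 25-30 °C; injury scored 0-5 by herbicidal rate after three weeks.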
# rice flat sedge = experiment: Test Example 3: herbicidal effect by foliage application, Wagner pot (Table 18, symbol E); assay type: in vivo, rice flat sedge (Cyperus iria)
# Method in brief: (§5)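 Plants were sown in alluvial soil held under 0.1–0.5 cm standing water and grown 14 days in a greenhouse at 25–30 °C. An emulsifiable formulation, water-diluted to the set dose, was then sprayed onto the foliage, and effects were scored three weeks later using previously defined criteria.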
# southern crabgrass [2] = experiment: Test Example 4: herbicidal effect by soil treatment (Table 19, symbol F); assay type: in vivo, southern crabgrass (Digitaria ciliaris)
# Method in brief: as §2
# redroot pigweed = experiment: Test Example 4: herbicidal effect by soil treatment (Table 19, symbol N); assay type: in vivo, redroot pigweed (Amaranthus retroflexus)
# Method in brief: as §2
# barnyard grass [3] = experiment: Test Example 5: herbicidal effect by foliage application, plastic box (Table 20, symbol H); assay type: in vivo, barnyard grass (Echinochloa crus-galli); settings: foliage application, three weeks after application
# Method in brief: as §1
# oval-leafed pondweed [4] = experiment: Test Example 2: herbicidal activity, application during weed generation under submerged conditions (Table 17, symbol C); assay type: in vivo, oval-leafed pondweed (Monochoria vaginalis); settings: application during weed generation, submerged conditions
# Method in brief: as §3
# southern crabgrass [5] = experiment: Test Example 5: herbicidal effect by foliage application, plastic box (Table 20, symbol F); assay type: in vivo, southern crabgrass (Digitaria ciliaris); settings: foliage application, three weeks after application
# Method in brief: as §1
# oval-leafed pondweed [6] = experiment: Test Example 1: herbicidal activity, application before weed generation under submerged conditions (Table 16, symbol C); assay type: in vivo, oval-leafed pondweed (Monochoria vaginalis)
# Method in brief: as §4
# barnyard grass [7] = experiment: Test Example 3: herbicidal effect by foliage application, Wagner pot (Table 18, symbol H); assay type: in vivo, barnyard grass (Echinochloa crus-galli)
# Method in brief: as §5
# Italian ryegrass = experiment: Test Example 5: herbicidal effect by foliage application, plastic box (Table 20, symbol K); assay type: in vivo, Italian ryegrass (Lolium multiflorum); settings: foliage application, three weeks after application
# Method in brief: as §1
# blackgrass [8] = experiment: Test Example 4: herbicidal effect by soil treatment (Table 19, symbol J); assay type: in vivo, blackgrass (Alopecurus myosuroides)
# Method in brief: as §2
# [9] = amount of applied herbicide 320 g/ha
# [10] = amount of applied herbicide 310 g/ha
SMILES,"P: chickweed, herbicidal effect grade (chickweed; 320 g/ha)","Q: false cleavers, herbicidal effect grade (false cleavers; [9])","J: blackgrass, herbicidal effect grade (blackgrass [1]; 320 g/ha)","M: velvetleaf, herbicidal effect grade (velvetleaf; [9])","herbicidal effect rating, A: late watergrass (late watergrass; AAH 320 g/ha)","R: persian speedwell, herbicidal effect grade (persian speedwell; [9])","Herbicidal effect, B: Japanese bulrush (Japanese bulrush; [9])",herbicidal effect on rice flat sedge (E) (rice flat sedge; 320 g/ha),"F: southern crabgrass, herbicidal effect grade (southern crabgrass [2]; [9])","N: redroot pigweed, herbicidal effect grade (redroot pigweed; [9])","H: barnyard grass, herbicidal effect grade (barnyard grass [3]; 320 g/ha)","herbicidal effect rating, C: oval-leafed pondweed (oval-leafed pondweed [4]; AAH 320 g/ha)","F: southern crabgrass, herbicidal effect grade (southern crabgrass [5]; 320 g/ha)","Herbicidal effect, C: oval-leafed pondweed (oval-leafed pondweed [6]; [9])",herbicidal effect on barnyard grass (H) (barnyard grass [7]; 320 g/ha),"K: Italian ryegrass, herbicidal effect grade (Italian ryegrass; 320 g/ha)","J: blackgrass, herbicidal effect grade (blackgrass [8]; [9])",other results
COc1ccc2c(-c3c(O)c(C)nn(C)c3=O)c(-c3ccc(F)cc3OC)sc2c1 [3-076],5 (Herbicidal rate of 90% or more (almost completely withered)),4 (Herbicidal rate of 70% or more and less than 90%),4 (Herbicidal rate of 70% or more and less than 90%),0 (Herbicidal rate of 5% or less (almost no effect)),3 (Herbicidal rate of 40% or more and less than 70%),5 (Herbicidal rate of 90% or more (almost completely withered)),5 (Herbicidal rate of 90% or more (almost completely withered)),5 (Herbicidal rate of 90% or more (almost completely withered)),0 (Herbicidal rate of 5% or less (almost no effect)),5 (Herbicidal rate of 90% or more (almost completely withered)),3 (Herbicidal rate of 40% or more and less than 70%),4 (Herbicidal rate of 70% or more and less than 90%),3 (Herbicidal rate of 40% or more and less than 70%),5 (Herbicidal rate of 90% or more (almost completely withered)),5 (Herbicidal rate of 90% or more (almost completely withered)),4 (Herbicidal rate of 70% or more and less than 90%),5 (Herbicidal rate of 90% or more (almost completely withered)),–
CCCC(=O)Oc1c(C)nn(C)c(=O)c1-c1c(-c2ccc(F)cc2OC)sc2cc(OC)ccc12 [3-077],5 (Herbicidal rate of 90% or more (almost completely withered)),2 (Herbicidal rate of 20% or more and less than 40%),4 (Herbicidal rate of 70% or more and less than 90%),0 (Herbicidal rate of 5% or less (almost no effect)),2 (Herbicidal rate of 20% or more and less than 40%),4 (Herbicidal rate of 70% or more and less than 90%),5 (Herbicidal rate of 90% or more (almost completely withered)),5 (Herbicidal rate of 90% or more (almost completely withered)),0 (Herbicidal rate of 5% or less (almost no effect)),5 (Herbicidal rate of 90% or more (almost completely withered)),0 (Herbicidal rate of 5% or less (almost no effect)),4 (Herbicidal rate of 70% or more and less than 90%),0 (Herbicidal rate of 5% or less (almost no effect)),5 (Herbicidal rate of 90% or more (almost completely withered)),5 (Herbicidal rate of 90% or more (almost completely withered)),3 (Herbicidal rate of 40% or more and less than 70%),3 (Herbicidal rate of 40% or more and less than 70%),–
CCOc1ccccc1-c1sc2cc(OC)ccc2c1-c1c(O)c(C)nn(CC)c1=O [3-085],5 (Herbicidal rate of 90% or more (almost completely withered)),0 (Herbicidal rate of 5% or less (almost no effect)),4 (Herbicidal rate of 70% or more and less than 90%),0 (Herbicidal rate of 5% or less (almost no effect)),0 (Herbicidal rate of 5% or less (almost no effect)),5 (Herbicidal rate of 90% or more (almost completely withered)),5 (Herbicidal rate of 90% or more (almost completely withered)),4 (Herbicidal rate of 70% or more and less than 90%),4 (Herbicidal rate of 70% or more and less than 90%),3 (Herbicidal rate of 40% or more and less than 70%),4 (Herbicidal rate of 70% or more and less than 90%),3 (Herbicidal rate of 40% or more and less than 70%),5 (Herbicidal rate of 90% or more (almost completely withered)),4 (Herbicidal rate of 70% or more and less than 90%),5 (Herbicidal rate of 90% or more (almost completely withered)),0 (Herbicidal rate of 5% or less (almost no effect)),1 (Herbicidal rate of 5% or more and less than 20%),–
CCCC(=O)Oc1c(C)nn(C)c(=O)c1-c1c(-c2ccccc2OC)sc2cc(OCC)ccc12 [3-090],–,–,–,–,–,–,–,–,–,–,–,–,–,–,–,–,–,"P: chickweed, herbicidal effect grade (chickweed; 310 g/ha): 5 (Herbicidal rate of 90% or more (almost completely withered)); Q: false cleavers, herbicidal effect grade (false cleavers; [10]): 5 (Herbicidal rate of 90% or more (almost completely withered)); J: blackgrass, herbicidal effect grade (blackgrass [1]; 310 g/ha): 4 (Herbicidal rate of 70% or more and less than 90%); M: velvetleaf, herbicidal effect grade (velvetleaf; [10]): 3 (Herbicidal rate of 40% or more and less than 70%); herbicidal effect rating, A: late watergrass (late watergrass; AAH 310 g/ha): 4 (Herbicidal rate of 70% or more and less than 90%); R: persian speedwell, herbicidal effect grade (persian speedwell; [10]): 5 (Herbicidal rate of 90% or more (almost completely withered)); Herbicidal effect, B: Japanese bulrush (Japanese bulrush; [10]): 5 (Herbicidal rate of 90% or more (almost completely withered)); herbicidal effect on rice flat sedge (E) (rice flat sedge; 310 g/ha): 5 (Herbicidal rate of 90% or more (almost completely withered)); F: southern crabgrass, herbicidal effect grade (southern crabgrass [2]; [10]): 3 (Herbicidal rate of 40% or more and less than 70%); N: redroot pigweed, herbicidal effect grade (redroot pigweed; [10]): 4 (Herbicidal rate of 70% or more and less than 90%); H: barnyard grass, herbicidal effect grade (barnyard grass [3]; 310 g/ha): 5 (Herbicidal rate of 90% or more (almost completely withered)); herbicidal effect rating, C: oval-leafed pondweed (oval-leafed pondweed [4]; AAH 310 g/ha): 5 (Herbicidal rate of 90% or more (almost completely withered)); F: southern crabgrass, herbicidal effect grade (southern crabgrass [5]; 310 g/ha): 3 (Herbicidal rate of 40% or more and less than 70%); Herbicidal effect, C: oval-leafed pondweed (oval-leafed pondweed [6]; [10]): 4 (Herbicidal rate of 70% or more and less than 90%); herbicidal effect on barnyard grass (H) (barnyard grass [7]; 310 g/ha): 5 (Herbicidal rate of 90% or more (almost completely withered)); K: Italian ryegrass, herbicidal effect grade (Italian ryegrass; 310 g/ha): 5 (Herbicidal rate of 90% or more (almost completely withered)); J: blackgrass, herbicidal effect grade (blackgrass [8]; [10]): 4 (Herbicidal rate of 70% or more and less than 90%)"
CCOc1ccc2c(-c3c(O)c(C)nn(C)c3=O)c(-c3ccc(OC)cc3)sc2c1 [3-091],5 (Herbicidal rate of 90% or more (almost completely withered)),5 (Herbicidal rate of 90% or more (almost completely withered)),3 (Herbicidal rate of 40% or more and less than 70%),0 (Herbicidal rate of 5% or less (almost no effect)),0 (Herbicidal rate of 5% or less (almost no effect)),5 (Herbicidal rate of 90% or more (almost completely withered)),4 (Herbicidal rate of 70% or more and less than 90%),4 (Herbicidal rate of 70% or more and less than 90%),2 (Herbicidal rate of 20% or more and less than 40%),3 (Herbicidal rate of 40% or more and less than 70%),3 (Herbicidal rate of 40% or more and less than 70%),3 (Herbicidal rate of 40% or more and less than 70%),2 (Herbicidal rate of 20% or more and less than 40%),4 (Herbicidal rate of 70% or more and less than 90%),2 (Herbicidal rate of 20% or more and less than 40%),0 (Herbicidal rate of 5% or less (almost no effect)),0 (Herbicidal rate of 5% or less (almost no effect)),–
